How the values were obtained:
[1] = system: Dhcr7 / cholesterol biosynthesis in Neuro2a cells; assay: Cellular sterol levels in Neuro2a cells after exposure; assay type: cell-based, Mouse; details: 100 nM; for cellular desmosterol and cholesterol: 72 hour exposure, serum-free media, relative to Control; for cellular accumulation of 7-DHC, less than the accumulation caused by C10-BAC: 72 hours
[2] = Time-courses of C10-BAC depletion and metabolite formation in HLM; details: HLM 0.2 mg/mL
recombinant CYP4F12 = target: T1, recombinant CYP4F12 (Homo sapiens, UniProt Q9HCS2); assay: BAC consumption by human recombinant CYP4F12; assay type: in vitro ADME; details: for substrate consumed by recombinant CYP4F12: 50 nM P450, 30-minute incubation, NADPH
T1 sequence (Q9HCS2 1-524): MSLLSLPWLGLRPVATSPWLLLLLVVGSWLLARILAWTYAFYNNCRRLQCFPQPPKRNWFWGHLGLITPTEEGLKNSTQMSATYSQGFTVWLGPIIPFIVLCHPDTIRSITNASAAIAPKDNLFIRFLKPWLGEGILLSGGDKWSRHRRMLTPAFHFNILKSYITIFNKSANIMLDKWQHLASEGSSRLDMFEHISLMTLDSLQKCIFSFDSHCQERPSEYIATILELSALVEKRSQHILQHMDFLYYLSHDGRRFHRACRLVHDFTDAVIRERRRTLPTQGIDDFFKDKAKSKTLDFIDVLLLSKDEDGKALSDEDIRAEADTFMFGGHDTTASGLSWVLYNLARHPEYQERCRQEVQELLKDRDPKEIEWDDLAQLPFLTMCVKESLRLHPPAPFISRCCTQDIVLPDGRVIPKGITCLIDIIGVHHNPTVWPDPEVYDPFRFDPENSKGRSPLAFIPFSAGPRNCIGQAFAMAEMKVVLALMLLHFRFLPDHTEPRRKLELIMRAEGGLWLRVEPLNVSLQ

recombinant CYP4F2 = target: T2, recombinant CYP4F2 (Homo sapiens, UniProt P78329); assay: BAC consumption by human recombinant CYP4F2; assay type: in vitro ADME; details: for effective inhibitor of recombinant CYP4F2 (C16-BAC consumption): inhibitor 1 μM, C16-BAC 2 μM, 50 nM P450, 20 minutes
T2 sequence (P78329 5-520): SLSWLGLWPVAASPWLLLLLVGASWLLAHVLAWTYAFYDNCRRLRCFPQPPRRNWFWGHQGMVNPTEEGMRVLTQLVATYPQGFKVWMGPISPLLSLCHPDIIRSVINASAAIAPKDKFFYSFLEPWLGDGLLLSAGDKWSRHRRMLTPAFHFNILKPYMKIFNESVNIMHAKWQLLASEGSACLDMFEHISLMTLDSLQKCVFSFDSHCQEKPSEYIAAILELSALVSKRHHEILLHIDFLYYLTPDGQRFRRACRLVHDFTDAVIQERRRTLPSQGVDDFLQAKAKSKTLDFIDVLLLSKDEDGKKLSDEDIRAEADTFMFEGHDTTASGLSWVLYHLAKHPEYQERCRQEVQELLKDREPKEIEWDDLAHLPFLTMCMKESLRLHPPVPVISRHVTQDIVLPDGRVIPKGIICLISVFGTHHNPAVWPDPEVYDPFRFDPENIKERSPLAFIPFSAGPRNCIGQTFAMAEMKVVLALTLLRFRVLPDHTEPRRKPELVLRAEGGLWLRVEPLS

[3] = Metabolic stability of BACs in HLM; assay type: in vitro ADME, human; details: BAC 2 μM incubated separately, HLM 1 mg/mL, NADPH-dependent consumption
recombinant CYP2A6 = target: T3, recombinant CYP2A6 (Homo sapiens, UniProt P11509); assay: BAC consumption by human recombinant CYP2A6; assay type: in vitro ADME; details: 2 μM substrate, 50 nM P450, 30-minute incubation, NADPH
T3 sequence (P11509 1-494): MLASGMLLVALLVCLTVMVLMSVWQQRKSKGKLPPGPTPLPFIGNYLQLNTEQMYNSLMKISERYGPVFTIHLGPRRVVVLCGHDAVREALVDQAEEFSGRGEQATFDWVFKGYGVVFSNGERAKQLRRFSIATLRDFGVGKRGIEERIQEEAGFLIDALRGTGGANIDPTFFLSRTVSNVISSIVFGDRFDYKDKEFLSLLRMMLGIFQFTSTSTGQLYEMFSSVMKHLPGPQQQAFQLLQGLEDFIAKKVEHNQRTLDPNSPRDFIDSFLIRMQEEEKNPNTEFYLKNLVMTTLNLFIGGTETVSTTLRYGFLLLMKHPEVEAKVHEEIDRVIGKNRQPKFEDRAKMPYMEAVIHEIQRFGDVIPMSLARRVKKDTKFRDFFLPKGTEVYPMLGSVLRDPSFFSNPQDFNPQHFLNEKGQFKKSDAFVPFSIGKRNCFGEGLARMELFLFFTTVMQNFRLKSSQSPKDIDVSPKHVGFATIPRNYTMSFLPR

recombinant CYP2D6 = recombinant CYP2D6 (Homo sapiens, UniProt P10635); assay: BAC consumption by human recombinant CYP2D6; assay type: in vitro ADME; details: 2 μM substrate, 50 nM P450, 30-minute incubation, NADPH
[4] = system: 3β-hydroxysterol-Δ^7-reductase (DHCR7); details: at nM concentrations; cited from earlier work
recombinant CYP3A4 = recombinant CYP3A4 (Homo sapiens, UniProt P08684); assay: BAC consumption by human recombinant CYP3A4; assay type: in vitro ADME; details: 2 μM substrate, 50 nM P450, 30-minute incubation, NADPH
[5] = Kinetic characterization of C10-BAC hydroxylation in HLM; assay type: in vitro ADME, human; details: HLM 0.04 mg/mL, NADPH, 0.1 to 128 μM C10-BAC, initial rates

recombinant CYP2D6, sequence (P10635 whole entry): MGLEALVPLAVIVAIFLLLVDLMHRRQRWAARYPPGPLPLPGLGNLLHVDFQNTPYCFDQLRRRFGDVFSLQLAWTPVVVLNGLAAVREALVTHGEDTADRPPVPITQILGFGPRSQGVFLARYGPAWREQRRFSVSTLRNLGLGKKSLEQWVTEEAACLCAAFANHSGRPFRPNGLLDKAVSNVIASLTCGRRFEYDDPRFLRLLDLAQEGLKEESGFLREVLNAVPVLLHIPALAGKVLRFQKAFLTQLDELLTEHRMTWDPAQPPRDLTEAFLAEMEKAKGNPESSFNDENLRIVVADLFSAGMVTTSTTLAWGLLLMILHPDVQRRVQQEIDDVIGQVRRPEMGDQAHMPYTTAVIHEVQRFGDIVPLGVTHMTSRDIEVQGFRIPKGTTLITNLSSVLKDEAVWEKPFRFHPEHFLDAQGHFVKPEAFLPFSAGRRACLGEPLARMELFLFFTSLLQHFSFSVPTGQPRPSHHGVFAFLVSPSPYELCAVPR
recombinant CYP3A4, sequence (P08684 whole entry): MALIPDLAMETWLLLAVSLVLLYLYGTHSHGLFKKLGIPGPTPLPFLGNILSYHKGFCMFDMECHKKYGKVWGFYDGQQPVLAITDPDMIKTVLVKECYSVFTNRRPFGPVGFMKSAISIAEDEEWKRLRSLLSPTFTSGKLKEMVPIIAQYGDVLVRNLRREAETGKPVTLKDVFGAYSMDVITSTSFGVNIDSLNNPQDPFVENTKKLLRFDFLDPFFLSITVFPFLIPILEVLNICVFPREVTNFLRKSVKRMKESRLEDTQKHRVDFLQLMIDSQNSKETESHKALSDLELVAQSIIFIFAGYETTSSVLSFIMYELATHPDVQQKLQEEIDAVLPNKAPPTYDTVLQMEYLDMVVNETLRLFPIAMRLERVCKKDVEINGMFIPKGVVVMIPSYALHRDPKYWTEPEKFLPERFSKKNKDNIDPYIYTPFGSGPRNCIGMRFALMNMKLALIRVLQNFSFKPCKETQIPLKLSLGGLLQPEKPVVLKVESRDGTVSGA

Cl.Cl.Clc1ccccc1CNCC1CCC(CNCc2ccccc2Cl)CC1 (stereo not shown) [AY9944, reference compound]
cellular desmosterol and cholesterol [1]: significant decreased level

C=C[C@H]1C[N@@]2CC[C@H]1C[C@@H]2[C@@H](O)c1ccnc2ccc(OC)cc12 [quinidine]
effect on C10-BAC (ω−1)-hydroxylation / oxidation at the (ω−1)-position in HLM ([2]; inhibitor 1 μM, C10-BAC 680 nM): primarily inhibitory | effect on C10-BAC ω-hydroxylation (ω-hydroxy metabolite formation) in HLM ([2]; inhibitor 1 μM, C10-BAC 680 nM): did not inhibit | effect on ω-carboxylic acid formation from C10-BAC in HLM ([2]; inhibitor 1 μM, C10-BAC 680 nM): partial suppression | inhibition of C16-BAC consumption by recombinant CYP4F12 (recombinant CYP4F12; inhibitor 1 μM alone, C16-BAC 2 μM, 50 nM P450, 20 minutes): did not inhibit | effective inhibitor of recombinant CYP4F2 (C16-BAC consumption) (recombinant CYP4F2): not

C[N+](C)(CCCCCCCCCCO)Cc1ccccc1.[Cl-] [ω-hydroxy-C10-BAC]
cellular accumulation of 7-DHC, less than the accumulation caused by C10-BAC [1]: over 2 orders of magnitude

CCCCCCCCCCCCCCCC[N+](C)(C)Cc1ccccc1.[Cl-] [C16-BAC]
apparent half-life in HLM [3]: ~15 min | substrate consumed by recombinant CYP2A6 (recombinant CYP2A6): 5% | substrate consumed by recombinant CYP2D6 (recombinant CYP2D6): 77% | substrate consumed by recombinant CYP4F12 (recombinant CYP4F12; 2 μM substrate): 88% | C16-BAC percent remaining with recombinant CYP4F12, HET0016 alone (recombinant CYP4F12; 2 μM substrate, 50 nM P450, 20 minute incubation, HET0016 1 μM, mean ± SD, n = 3): 49% ± 6% | C16-BAC percent remaining with recombinant CYP4F12, no inhibitor (recombinant CYP4F12; 2 μM substrate, 50 nM P450, 20 minute incubation, no inhibitor, mean ± SD, n = 3): 26% ± 4% | substrate consumed by recombinant CYP4F2 (recombinant CYP4F2; 2 μM substrate, 50 nM P450, 30-minute incubation, NADPH): 45%

CCCCCCCCCCCCCC[N+](C)(C)Cc1ccccc1.[Cl-] [C14-BAC]
apparent half-life in HLM [3]: ~6 min

CC(O)CCCCCCCC[N+](C)(C)Cc1ccccc1.[Cl-] (stereo not shown) [(ω−1)-hydroxy-C10-BAC]
cellular accumulation of 7-DHC, less than the accumulation caused by C10-BAC [1]: over 2 orders of magnitude

CCCCCCCCCC[N+](C)(C)Cc1ccccc1.[Cl-] [C10-BAC]
cellular desmosterol and cholesterol [1]: significant decreased level | C10-BAC concentration remaining at the 4-minute time point ([2]; 680 nM initial substrate, NADPH, no inhibitor): 341 ± 7 nM | apparent half-life in HLM [3]: approximately 1 minutes | substrate consumed by recombinant CYP2D6 (recombinant CYP2D6): essentially all | inhibition of DHCR7 in the cholesterol biosynthesis pathway [4]: inhibit | substrate consumed by recombinant CYP3A4 (recombinant CYP3A4): 15% | substrate consumed by recombinant CYP4F12 (recombinant CYP4F12; 2 μM substrate): essentially all | Vmax of (ω−1)-hydroxylation [5]: 126 pmol/min/mg | Vmax of ω-hydroxylation [5]: 380 pmol/min/mg | Km ([5]; read-out: Km of (ω−1)-hydroxylation): 0.13 µM

CCCCc1ccc(N=CNO)c(C)c1 [HET0016]
effect on (ω−1)-ketone formation from C10-BAC in HLM ([2]; inhibitor 1 μM, C10-BAC 680 nM): suppressing | effect on C10-BAC (ω−1)-hydroxylation / oxidation at the (ω−1)-position in HLM ([2]; inhibitor 1 μM, C10-BAC 680 nM): promoted | effect on C10-BAC ω-hydroxylation (ω-hydroxy metabolite formation) in HLM ([2]; inhibitor 1 μM, C10-BAC 680 nM): nearly complete inhibition | effect on ω-carboxylic acid formation from C10-BAC in HLM ([2]; inhibitor 1 μM, C10-BAC 680 nM): nearly complete inhibition | effective inhibitor of recombinant CYP4F2 (C16-BAC consumption) (recombinant CYP4F2): essentially complete inhibition

— PMC7269367 (Chemical research in toxicology, 2019)
